In general, melting point refers to the temperature, or range, at which the solid turns liquid. Take `N#C/C(=C1/SCC(c2cc(Cl)sc2Cl)S1)n1ccnc1` (stereo not shown) [I.h.25, (2E)-2-[4-(2,5-dichloro-3-thienyl)-1,3-dithiolan-2-ylidene]-2-imidazol-1-yl-acetonitrile]: the melting point lay within 117 to 119 °C.
